# Experimental data: patent publication US8580918B2, “Peptidic GLP-2 agonists” (Ferring B.V., priority 2009, dated 2013)
# Read-outs that look alike come from different tables or passages of the source. Where a SMILES comes first, the peptide text is derived from it. Where no end group is shown, it is not given here. [ ]: non-standard residue; d: D form. The star is where a group is joined. X1 = NC(=O)CCOCCOCCOCCOCCOCCOCCNC(=O)COCC(=O)NCCCOCCOCCOCCCN*; dPhe(3-Cl) = N[C@H](Cc1cccc(Cl)c1)C(=O)O; d2Thi = N[C@H](Cc1cccs1)C(=O)O; Nle = CCCC[C@H](N)C(=O)O
# Tests used:
# [1] = Pharmacokinetics in rats after intravenous bolus injection (systemic clearance); type: in vivo; conditions: rat, adult male Sprague-Dawley rats, i.v. bolus, read-out: CL (ml/kg/min) Average
# Outline: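 Systemic clearance from noncompartmental analysis as dose per kg over trapezoidal AUC extrapolated to infinity, mean and SD across animals. Plasma (K2EDTA) levels by LC/MS/MS after single IV jugular-vein bolus, 0.1-1.0 mg/kg, in 3-4 cannulated male Sprague-Dawley rats.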
# [2] = in humans; cited from earlier work
# [3] = plasma, 0.2 mg FB/kg, dose 0.20 mg FB/kg
"clearance [1, 3]",Molecule,other results
0.16 mL/kg/min,"CCCC[C@H](NC(=O)[C@H](CCC(=O)O)NC(=O)[C@H](CC(=O)O)NC(=O)[C@H](CO)NC(=O)[C@H](Cc1ccccc1)NC(=O)[C@H](CO)NC(=O)CNC(=O)[C@H](CC(=O)O)NC(=O)CNC(=O)[C@@H](N)Cc1c[nH]cn1)C(=O)N[C@H](Cc1ccccc1)C(=O)N[C@H](C(=O)N[C@H](C(=O)N[C@@H](CC(C)C)C(=O)N[C@@H](CC(=O)O)C(=O)N[C@@H](Cc1ccccc1)C(=O)N[C@@H](CC(C)C)C(=O)N[C@@H](C)C(=O)N[C@@H](C)C(=O)N[C@@H](CCCNC(=N)N)C(=O)N[C@@H](CC(=O)O)C(=O)N[C@@H](Cc1ccccc1)C(=O)N[C@H](C(=O)N[C@@H](CC(N)=O)C(=O)N[C@@H](Cc1c[nH]c2ccccc12)C(=O)N[C@@H](CC(C)C)C(=O)N[C@H](C(=O)N[C@@H](CCC(N)=O)C(=O)N[C@H](C(=O)N[C@@H](CCCCN)C(=O)N[C@H](C(=O)N[C@H](C(=O)N[C@@H](CC(=O)O)C(=O)NCCCOCCOCCOCCCNC(=O)COCC(=O)NCCOCCOCCOCCOCCOCCOCCC(N)=O)[C@@H](C)O)[C@@H](C)CC)[C@@H](C)O)[C@@H](C)CC)[C@@H](C)CC)[C@@H](C)CC)[C@@H](C)O [Compound 61, [Gly2,Nle10,D-Phe11,Phe16] hGLP-2(1-33)-NH—CH2—((CH2)2O)3—(CH2)3—NH—C(O)—CH2—O—CH2—C(O)—NH—((CH2)2O)6—(CH2)2—C(O)—NH2] (H-HGDGSFSDE[Nle][dF]TILDFLAARDFINWLIQTKITD-X1)",–
0.24 mL/kg/min,"CCCC[C@H](NC(=O)[C@H](CCC(=O)O)NC(=O)[C@H](CC(=O)O)NC(=O)[C@H](CO)NC(=O)[C@H](Cc1ccccc1)NC(=O)[C@H](CO)NC(=O)CNC(=O)[C@H](CC(=O)O)NC(=O)CNC(=O)[C@@H](N)Cc1c[nH]cn1)C(=O)N[C@H](Cc1ccccc1)C(=O)N[C@H](C(=O)N[C@H](C(=O)N[C@@H](CC(C)C)C(=O)N[C@@H](CC(=O)O)C(=O)N[C@@H](Cc1ccccc1)C(=O)N[C@@H](CC(C)C)C(=O)N[C@@H](C)C(=O)N[C@@H](C)C(=O)N[C@@H](CCCNC(=N)N)C(=O)N[C@@H](CC(=O)O)C(=O)N[C@@H](Cc1ccccc1)C(=O)N[C@H](C(=O)N[C@@H](CC(N)=O)C(=O)N[C@@H](Cc1c[nH]c2ccccc12)C(=O)N[C@@H](CC(C)C)C(=O)N[C@H](C(=O)N[C@@H](CCC(N)=O)C(=O)N[C@H](C(=O)N[C@@H](CCCCN)C(=O)N[C@H](C(=O)N[C@H](C(=O)N[C@@H](CC(=O)O)C(N)=O)[C@@H](C)O)[C@@H](C)CC)[C@@H](C)O)[C@@H](C)CC)[C@@H](C)CC)[C@@H](C)CC)[C@@H](C)O [Compound 63, [Gly2,Nle10,D-Phe11,Phe16] hGLP-2(1-33)-NH2] (H-HGDGSFSDE[Nle][dF]TILDFLAARDFINWLIQTKITD-NH2)",–
0.15 mL/kg/min,"CCCC[C@H](NC(=O)[C@H](CCC(=O)O)NC(=O)[C@H](CC(=O)O)NC(=O)[C@H](CO)NC(=O)[C@H](Cc1ccccc1)NC(=O)[C@H](CO)NC(=O)CNC(=O)[C@H](CC(=O)O)NC(=O)CNC(=O)[C@@H](N)Cc1c[nH]cn1)C(=O)N[C@H](Cc1ccccc1)C(=O)N[C@H](C(=O)N[C@H](C(=O)N[C@@H](CC(C)C)C(=O)N[C@@H](CC(=O)O)C(=O)N[C@@H](Cc1ccccc1)C(=O)N[C@@H](CC(C)C)C(=O)N[C@@H](C)C(=O)N[C@@H](C)C(=O)N[C@@H](CCCNC(=N)N)C(=O)N[C@@H](CC(=O)O)C(=O)N[C@@H](Cc1ccccc1)C(=O)N[C@H](C(=O)N[C@@H](CC(N)=O)C(=O)N[C@@H](Cc1c[nH]c2ccccc12)C(=O)N[C@@H](CC(C)C)C(=O)N[C@H](C(=O)N[C@@H](CCC(N)=O)C(=O)N[C@H](C(=O)N[C@@H](CCCCN)C(=O)N[C@H](C(=O)N[C@H](C(=O)N[C@@H](CC(=O)O)C(=O)O)[C@@H](C)O)[C@@H](C)CC)[C@@H](C)O)[C@@H](C)CC)[C@@H](C)CC)[C@@H](C)CC)[C@@H](C)O [Compound 64, [Gly2,Nle10,D-Phe11,Phe16] hGLP-2(1-33)-OH] (H-HGDGSFSDE[Nle][dF]TILDFLAARDFINWLIQTKITD-OH)",–
0.12 mL/kg/min,"CCCC[C@H](NC(=O)[C@H](CCC(=O)O)NC(=O)[C@H](CC(=O)O)NC(=O)[C@H](CO)NC(=O)[C@H](Cc1ccccc1)NC(=O)[C@H](CO)NC(=O)CNC(=O)[C@H](CC(=O)O)NC(=O)CNC(=O)[C@@H](N)Cc1c[nH]cn1)C(=O)N[C@H](Cc1cccc(Cl)c1)C(=O)N[C@H](C(=O)N[C@H](C(=O)N[C@@H](CC(C)C)C(=O)N[C@@H](CC(=O)O)C(=O)N[C@@H](Cc1ccccc1)C(=O)N[C@@H](CC(C)C)C(=O)N[C@@H](C)C(=O)N[C@@H](C)C(=O)N[C@@H](CCCNC(=N)N)C(=O)N[C@@H](CC(=O)O)C(=O)N[C@@H](Cc1ccccc1)C(=O)N[C@H](C(=O)N[C@@H](CC(N)=O)C(=O)N[C@@H](Cc1c[nH]c2ccccc12)C(=O)N[C@@H](CC(C)C)C(=O)N[C@H](C(=O)N[C@@H](CCC(N)=O)C(=O)N[C@H](C(=O)N[C@@H](CCCCN)C(=O)N[C@H](C(=O)N[C@H](C(=O)N[C@@H](CC(=O)O)C(N)=O)[C@@H](C)O)[C@@H](C)CC)[C@@H](C)O)[C@@H](C)CC)[C@@H](C)CC)[C@@H](C)CC)[C@@H](C)O [Compound 66, [Gly2,Nle10,D-3-Cpa11,Phe16] hGLP-2(1-33)-NH2] (H-HGDGSFSDE[Nle][dPhe(3-Cl)]TILDFLAARDFINWLIQTKITD-NH2)",–
0.15 mL/kg/min,"CCCC[C@H](NC(=O)[C@H](CCC(=O)O)NC(=O)[C@H](CC(=O)O)NC(=O)[C@H](CO)NC(=O)[C@H](Cc1ccccc1)NC(=O)[C@H](CO)NC(=O)CNC(=O)[C@H](CC(=O)O)NC(=O)CNC(=O)[C@@H](N)Cc1c[nH]cn1)C(=O)N[C@H](Cc1cccs1)C(=O)N[C@H](C(=O)N[C@H](C(=O)N[C@@H](CC(C)C)C(=O)N[C@@H](CC(=O)O)C(=O)N[C@@H](Cc1ccccc1)C(=O)N[C@@H](CC(C)C)C(=O)N[C@@H](C)C(=O)N[C@@H](C)C(=O)N[C@@H](CCCNC(=N)N)C(=O)N[C@@H](CC(=O)O)C(=O)N[C@@H](Cc1ccccc1)C(=O)N[C@H](C(=O)N[C@@H](CC(N)=O)C(=O)N[C@@H](Cc1c[nH]c2ccccc12)C(=O)N[C@@H](CC(C)C)C(=O)N[C@H](C(=O)N[C@@H](CCC(N)=O)C(=O)N[C@H](C(=O)N[C@@H](CCCCN)C(=O)N[C@H](C(=O)N[C@H](C(=O)N[C@@H](CC(=O)O)C(N)=O)[C@@H](C)O)[C@@H](C)CC)[C@@H](C)O)[C@@H](C)CC)[C@@H](C)CC)[C@@H](C)CC)[C@@H](C)O [Compound 68, [Gly2,Nle10,D-Thi11,Phe16] hGLP-2(1-33)-NH2] (H-HGDGSFSDE[Nle][d2Thi]TILDFLAARDFINWLIQTKITD-NH2)",–
–,"CC[C@H](C)[C@H](NC(=O)[C@H](Cc1ccccc1)NC(=O)[C@H](CC(=O)O)NC(=O)[C@H](CCCN=C(N)N)NC(=O)[C@H](C)NC(=O)[C@H](C)NC(=O)[C@H](CC(C)C)NC(=O)[C@H](CC(N)=O)NC(=O)[C@H](CC(=O)O)NC(=O)[C@H](CC(C)C)NC(=O)[C@@H](NC(=O)[C@@H](NC(=O)[C@H](CC(N)=O)NC(=O)[C@H](CCSC)NC(=O)[C@H](CCC(=O)O)NC(=O)[C@H](CC(=O)O)NC(=O)[C@H](CO)NC(=O)[C@H](Cc1ccccc1)NC(=O)[C@H](CO)NC(=O)CNC(=O)[C@H](CC(=O)O)NC(=O)[C@H](C)NC(=O)[C@@H](N)Cc1cnc[nH]1)[C@@H](C)O)[C@@H](C)CC)C(=O)N[C@@H](CC(N)=O)C(=O)N[C@@H](Cc1c[nH]c2ccccc12)C(=O)N[C@@H](CC(C)C)C(=O)N[C@H](C(=O)N[C@@H](CCC(N)=O)C(=O)N[C@H](C(=O)N[C@@H](CCCCN)C(=O)N[C@H](C(=O)N[C@H](C(=O)N[C@@H](CC(=O)O)C(=O)O)[C@@H](C)O)[C@@H](C)CC)[C@@H](C)O)[C@@H](C)CC [hGLP-2, reference compound]","clearance ([1]; plasma, dose 1.0 mg FB/kg): 24.6 mL/kg/min; half-life (t1/2) [2]: 10 min"
9.9 mL/kg/min,"CC[C@H](C)[C@H](NC(=O)[C@H](Cc1ccccc1)NC(=O)[C@H](CC(=O)O)NC(=O)[C@H](CCCNC(=N)N)NC(=O)[C@H](C)NC(=O)[C@H](C)NC(=O)[C@H](CC(C)C)NC(=O)[C@H](CC(N)=O)NC(=O)[C@H](CC(=O)O)NC(=O)[C@H](CC(C)C)NC(=O)[C@@H](NC(=O)[C@@H](NC(=O)[C@H](CC(N)=O)NC(=O)[C@H](CCSC)NC(=O)[C@H](CCC(=O)O)NC(=O)[C@H](CC(=O)O)NC(=O)[C@H](CO)NC(=O)[C@H](Cc1ccccc1)NC(=O)[C@H](CO)NC(=O)CNC(=O)[C@H](CC(=O)O)NC(=O)CNC(=O)[C@@H](N)Cc1c[nH]cn1)[C@@H](C)O)[C@@H](C)CC)C(=O)N[C@@H](CC(N)=O)C(=O)N[C@@H](Cc1c[nH]c2ccccc12)C(=O)N[C@@H](CC(C)C)C(=O)N[C@H](C(=O)N[C@@H](CCC(N)=O)C(=O)N[C@H](C(=O)N[C@@H](CCCCN)C(=O)N[C@H](C(=O)N[C@H](C(=O)N[C@@H](CC(=O)O)C(=O)O)[C@@H](C)O)[C@@H](C)CC)[C@@H](C)O)[C@@H](C)CC [teduglutide, [Gly2]hGLP 2, reference compound]","clearance ([1]; plasma, dose 1.0 mg FB/kg): 8 mL/kg/min"
–,"HGEGSFSSELSTILDALAARDFIAWLIATKITDKKKKKK-NH2 (C-terminus assumed) [ZP-1846, reference compound]","clearance ([1]; in vivo, dose 0.20 mg FB/kg): 2.8 mL/kg/min"
2.4 mL/kg/min,"HGEGTFSSELATILDALAARDFIAWLIATKITDKKKKKK-NH2 [ZP-1848, reference compound]",–
